Data: patent US20110166105A1, “ANTIMICROBIAL WASH AND CARRIER SOLUTIONS AND USES THEREOF” (TEVA ANIMAL HEALTH, INC., priority 2002, published 2011)

Experiment: Antimicrobial preservative effectiveness (APE), USP 25 test 51
Assay type: cell-based
Conditions: pH 8.5
Protocol: Various concentrations of benzyl alcohol were tested for antimicrobial preservative effectiveness (APE) using the USP 25 test 51 (U.S. Pharmacopeia 25, U.S. Pharmacopeia, MD (2001)). The formulations below are based on the formulation designated as 940-16 C (with a slightly higher pH) in Example 2 above with varying benzyl alcohol concentrations. The table below summarizes the results of these studies. Antimicrobial activity can be measured by any standard assay known to those of skill in the art (e.g., USP 25 antimicrobial preservative effectiveness (APE) test 51 (U.S. Pharmacopeia 25, U.S. Pharmacopeia, MD (2001)).

OCc1ccccc1 [benzyl alcohol]
USP antimicrobial preservative requirement: meets the USP antimicrobial preservative requirement
